Results on four molecules are retold here after article PMC12037730 (Nature Communications, 2025).

For orientation: Kd means a measure of binding affinity in units of concentration. Low values mean a tighter complex, high ones a looser complex.

For data set [1], the target named is T1, PRPS1 (Homo sapiens, UniProt P60891).
T1 construct: full length
T1 sequence (P60891 2-318): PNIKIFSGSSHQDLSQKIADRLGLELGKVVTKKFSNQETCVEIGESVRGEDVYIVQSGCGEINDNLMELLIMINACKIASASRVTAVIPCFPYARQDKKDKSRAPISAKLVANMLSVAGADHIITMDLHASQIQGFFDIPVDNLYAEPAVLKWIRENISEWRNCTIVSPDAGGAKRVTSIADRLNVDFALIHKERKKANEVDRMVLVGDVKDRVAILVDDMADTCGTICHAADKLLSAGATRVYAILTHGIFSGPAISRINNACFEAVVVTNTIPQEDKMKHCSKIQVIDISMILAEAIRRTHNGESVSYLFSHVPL
Put plainly: ITC; co-crystal structure with R5P, ApCpp, Cd2+; enzyme inhibition (IC50 […]). In kind it is binding. For orientation: Isothermal titration calorimetry measures the heat released or taken up as one component is titrated into another.

For data set [2], the target named is T2, PRPS2(-3AA/Q156K) (Homo sapiens, UniProt P11908, Q153K).
T2 construct: full length chimeric variant, 3AA (V103, G104, E105) deleted
T2 sequence (P11908 2-318 Q153K): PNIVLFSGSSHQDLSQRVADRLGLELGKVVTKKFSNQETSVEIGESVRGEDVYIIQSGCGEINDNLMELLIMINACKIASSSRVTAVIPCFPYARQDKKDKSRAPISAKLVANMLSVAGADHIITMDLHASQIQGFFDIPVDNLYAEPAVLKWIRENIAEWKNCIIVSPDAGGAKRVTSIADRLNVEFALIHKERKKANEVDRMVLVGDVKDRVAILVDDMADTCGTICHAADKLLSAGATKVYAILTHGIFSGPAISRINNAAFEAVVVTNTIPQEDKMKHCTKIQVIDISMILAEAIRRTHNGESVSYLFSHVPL
The data set can be described thus: HPLC feedback inhibition assay (AMP production). In kind it is biochemical.

For data set [3], the target named is T1, PRPS1. The data set can be described thus: steady-state kinetics, coupled assay at […] nm. Type of data set: biochemical.
Data set [4] deals with the molecule itself. Put plainly: crystal structure; co-crystallisation of 500 μM purified PRPS with ApCpp or GDP (1:5), R5P, crystals soaked in 1 mM CdCl2; 277 K.

In data set [1], `Nc1nc2c(ncn2[C@@H]2O[C@H](CO[P@](=O)(O)OP(=O)(O)O)[C@@H](O)[C@H]2O)c(=O)[nH]1` [GDP] returned a Kd of 10 µM. Besides, in data set [2], the “HPLC feedback inhibition assay (AMP production)” value was “chimeric variants of PRPS1( + 3AA/K153Q) and PRPS2(-3AA/Q156K), which exhibited switched GDP feedback inhibition responses”.

In the case of `Nc1ncnc2c1ncn2[C@@H]1O[C@H](COP(=O)(O)OP(=O)(O)OP(=O)(O)O)[C@@H](O)[C@H]1O` [ATP], in data set [3], the “steady-state kinetics, coupled assay at 340 nm” value is “The catalytic efficiencies of PRPS2 and PRPS1 on either ATP or R5P were characterized”.

B1: PRPS1( + 3AA), PRPS1 chimeric variant (enzyme, human, UniProt P60891 1-318, looked up)
chain: MPNIKIFSGSSHQDLSQKIADRLGLELGKVVTKKFSNQETCVEIGESVRGEDVYIVQSGCGEINDNLMELLIMINACKIASASRVTAVIPCFPYARQDKKDKVGESRAPISAKLVANMLSVAGADHIITMDLHASQIQGFFDIPVDNLYAEPAVLKWIRENISEWRNCTIVSPDAGGAKRVTSIADRLNVDFALIHKERKKANEVDRMVLVGDVKDRVAILVDDMADTCGTICHAADKLLSAGATRVYAILTHGIFSGPAISRINNACFEAVVVTNTIPQEDKMKHCSKIQVIDISMILAEAIRRTHNGESVSYLFSHVPL
notes: PRPS1, human, full length, with the three residues V, G, E of PRPS2 (V103, G104, E105) inserted into the corresponding position of Loop2; the C-terminal residue is then L321; Crystallised with R5P, ApCpp and Cd2+; also called PRPS1 chimera; source: E. coli BL21(DE3), purified (Ni-NTA, ion exchange, Superdex-200); not shown: His-Sumo, N-terminal, cleaved
Take B1: the binding result in data set [4] is “binds”.

B2: recombinant PRPS2 (enzyme, human, UniProt P11908-2 1-321, looked up)
chain: MPNIVLFSGSSHQDLSQRVADRLGLELGKVVTKKFSNQETSVEIGESVRGEDVYIIQSGCGEINDNLMELLIMINACKIASSSRVTAVIPCFPYARQDKKDKVGESRAPISAKLVANMLSVAGADHIITMDLHASQIQGFFDIPVDNLYAEPAVLQWIRENIAEWKNCIIVSPDAGGAKRVTSIADRLNVEFALIHKERKKANEVDRMVLVGDVKDRVAILVDDMADTCGTICHAADKLLSAGATKVYAILTHGIFSGPAISRINNAAFEAVVVTNTIPQEDKMKHCTKIQVIDISMILAEAIRRTHNGESVSYLFSHVPL
notes: PRPS2, human, full-length gene synthesised and subcloned into pSumo; the form with V103, G104, E105 (3AA) in Loop2 and Q156, i.e. the 321-residue isoform; Crystallised with R5P, ApCpp and Cd2+; source: E. coli BL21(DE3), purified (Ni-NTA, ion exchange, Superdex-200); not shown: His-Sumo, N-terminal, cleaved
In the case of B2, the binding result in data set [4] is reported as “binds”.
